Assay results reported in ChEMBL document CHEMBL1201862, “PubChem BioAssay data set” (2004).
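How tested: cells in 96-well plates exposed to compound for 48 hours at five concentrations. Here, GI50 denotes the concentration required for 50% inhibition of growth.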 Calls of active or inactive are those of the source. No stated cut-off is given here; in the data, active = GI50 up to about 1.1 µM and inactive = higher.

How the values were obtained:
Experiment in all cases: NCI-60 cell line screen, 48 h
HCC 2998 = test system: HCC 2998
NCI/ADR-RES = test system: NCI/ADR-RES
OVCAR-3 = test system: OVCAR-3
A498 = test system: A498
UO-31 = test system: UO-31
BT-549 = test system: BT-549
MDA-MB-231 = test system: MDA-MB-231
NCI-H23 = test system: NCI-H23
OVCAR-4 = test system: OVCAR-4
SK-OV-3 = test system: SK-OV-3
SF-295 = test system: SF-295
SK-MEL-28 = test system: SK-MEL-28
EKVX = test system: EKVX
HCT-116 = test system: HCT-116
TK-10 = test system: TK-10
SK-MEL-2 = test system: SK-MEL-2
786-0 = test system: 786-0
OVCAR-5 = test system: OVCAR-5
SK-MEL-5 = test system: SK-MEL-5
PC-3 = test system: PC-3
M14 = test system: M14
HT-29 = test system: HT-29
HCT-15 = test system: HCT-15
UACC-257 = test system: UACC-257
Hs-578T = test system: Hs-578T
OVCAR-8 = test system: OVCAR-8
RPMI-8226 = test system: RPMI-8226
NCI-H460 = test system: NCI-H460
COLO 205 = test system: COLO 205
SN12C = test system: SN12C
HOP-92 = test system: HOP-92
CCRF-CEM = test system: CCRF-CEM
ACHN = test system: ACHN
KM12 = test system: KM12
A549 = test system: A549
U-251 = test system: U-251
HOP-62 = test system: HOP-62
CAKI-1 = test system: CAKI-1
DU-145 = test system: DU-145
MOLT-4 = test system: MOLT-4
SNB-19 = test system: SNB-19
K562 = test system: K562
HL-60 = test system: HL-60
NCI-H226 = test system: NCI-H226
NCI-H522 = test system: NCI-H522
MCF7 = test system: MCF7
SW-620 = test system: SW-620
UACC-62 = test system: UACC-62
SF-539 = test system: SF-539
LOX IMVI = test system: LOX IMVI
IGROV-1 = test system: IGROV-1
MDA-MB-435 = test system: MDA-MB-435
RXF 393 = test system: RXF 393
SNB-75 = test system: SNB-75
SR = test system: SR
T47D = test system: T47D
SF-268 = test system: SF-268
Malme-3M = test system: Malme-3M

O=C1C(O)=C(Cc2ccccc2)C(=O)c2ccccc21
GI50 (HCC 2998): 83.2 µM (inactive) | GI50 (NCI/ADR-RES): 49.5 µM (inactive) | GI50 (OVCAR-3): 27.7 µM (inactive) | GI50 (A498): 51.6 µM (inactive) | GI50 (UO-31): 41.6 µM (inactive) | GI50 (BT-549): 70.8 µM (inactive) | GI50 (MDA-MB-231): 91.2 µM (inactive) | GI50 (NCI-H23): 49.1 µM (inactive) | GI50 (OVCAR-4): 46.6 µM (inactive) | GI50 (SK-OV-3): 63.5 µM (inactive) | GI50 (SF-295): 45.3 µM (inactive) | GI50 (SK-MEL-28): 42.3 µM (inactive) | GI50 (EKVX): 55.1 µM (inactive) | GI50 (HCT-116): 50.6 µM (inactive) | GI50 (TK-10): > 100 µM (inactive) | GI50 (SK-MEL-2): 42 µM (inactive) | GI50 (786-0): 61.7 µM (inactive) | GI50 (OVCAR-5): > 100 µM (inactive) | GI50 (SK-MEL-5): 18.7 µM (inactive) | GI50 (PC-3): 54.5 µM (inactive) | GI50 (M14): 34.8 µM (inactive) | GI50 (HT-29): 48.9 µM (inactive) | GI50 (HCT-15): 35.6 µM | GI50 (UACC-257): 46.8 µM (inactive) | GI50 (Hs-578T): 37.3 µM (inactive)

Cc1c/c(=N/NC(=O)c2ccncc2)n2nc(N)sc2n1
GI50 (HCC 2998): > 100 µM (inactive) | GI50 (OVCAR-8): > 100 µM (inactive) | GI50 (NCI/ADR-RES): > 100 µM (inactive) | GI50 (OVCAR-3): > 100 µM (inactive) | GI50 (A498): > 100 µM (inactive) | GI50 (UO-31): > 100 µM (inactive) | GI50 (BT-549): > 100 µM (inactive) | GI50 (RPMI-8226): > 100 µM (inactive) | GI50 (MDA-MB-231): > 100 µM (inactive) | GI50 (NCI-H23): > 100 µM (inactive) | GI50 (NCI-H460): > 100 µM (inactive) | GI50 (COLO 205): > 100 µM (inactive) | GI50 (SN12C): > 100 µM (inactive) | GI50 (OVCAR-4): > 100 µM (inactive) | GI50 (SK-OV-3): > 100 µM (inactive) | GI50 (SF-295): > 100 µM (inactive) | GI50 (HOP-92): > 100 µM (inactive) | GI50 (CCRF-CEM): > 100 µM (inactive) | GI50 (SK-MEL-28): > 100 µM (inactive) | GI50 (ACHN): > 100 µM (inactive) | GI50 (KM12): > 100 µM (inactive) | GI50 (EKVX): > 100 µM (inactive) | GI50 (HCT-116): > 100 µM (inactive) | GI50 (SK-MEL-2): > 100 µM (inactive) | GI50 (786-0): > 100 µM (inactive) | GI50 (OVCAR-5): > 100 µM (inactive) | GI50 (SK-MEL-5): > 100 µM (inactive) | GI50 (A549): > 100 µM (inactive) | GI50 (PC-3): > 100 µM (inactive) | GI50 (U-251): > 100 µM (inactive) | GI50 (HOP-62): > 100 µM (inactive) | GI50 (CAKI-1): > 100 µM (inactive) | GI50 (DU-145): > 100 µM (inactive) | GI50 (MOLT-4): > 100 µM (inactive) | GI50 (SNB-19): > 100 µM (inactive) | GI50 (K562): > 100 µM (inactive) | GI50 (HL-60): > 100 µM (inactive) | GI50 (NCI-H226): > 100 µM (inactive) | GI50 (M14): > 100 µM (inactive) | GI50 (NCI-H522): > 100 µM (inactive) | GI50 (MCF7): > 100 µM (inactive) | GI50 (SW-620): > 100 µM (inactive) | GI50 (HT-29): > 100 µM (inactive) | GI50 (UACC-62): > 100 µM (inactive) | GI50 (HCT-15): > 100 µM | GI50 (SF-539): > 100 µM (inactive) | GI50 (LOX IMVI): > 100 µM (inactive) | GI50 (UACC-257): > 100 µM (inactive) | GI50 (IGROV-1): > 100 µM (inactive) | GI50 (MDA-MB-435): > 100 µM (inactive) | GI50 (RXF 393): > 100 µM (inactive) | GI50 (SNB-75): 40.2 µM (inactive) | GI50 (SR): > 100 µM (inactive)

Cc1ccc2nc(-c3ccccc3)c(N=O)n2c1
GI50 (OVCAR-8): 41 µM (inactive) | GI50 (NCI/ADR-RES): 46.2 µM (inactive) | GI50 (OVCAR-3): 32.4 µM (inactive) | GI50 (A498): > 100 µM (inactive) | GI50 (UO-31): 66.8 µM (inactive) | GI50 (BT-549): 37.1 µM (inactive) | GI50 (RPMI-8226): 36.1 µM (inactive) | GI50 (MDA-MB-231): 17.4 µM (inactive) | GI50 (NCI-H23): 36.1 µM (inactive) | GI50 (T47D): 71 µM (inactive) | GI50 (NCI-H460): 50.1 µM (inactive) | GI50 (COLO 205): 35.7 µM (inactive) | GI50 (SN12C): 20.2 µM (inactive) | GI50 (OVCAR-4): 26.2 µM (inactive) | GI50 (SK-OV-3): > 100 µM (inactive) | GI50 (SF-295): 87.1 µM (inactive) | GI50 (HOP-92): 77.1 µM (inactive) | GI50 (CCRF-CEM): 38.5 µM (inactive) | GI50 (SK-MEL-28): 45.9 µM (inactive) | GI50 (SF-268): 69.2 µM (inactive) | GI50 (ACHN): 46.9 µM (inactive) | GI50 (KM12): 40.6 µM (inactive) | GI50 (EKVX): 20.5 µM (inactive) | GI50 (HCT-116): 35.7 µM (inactive) | GI50 (TK-10): 38.3 µM (inactive) | GI50 (SK-MEL-2): > 100 µM (inactive) | GI50 (786-0): 40.9 µM (inactive) | GI50 (OVCAR-5): 43.5 µM (inactive) | GI50 (SK-MEL-5): 46.3 µM (inactive) | GI50 (A549): 32.7 µM (inactive) | GI50 (PC-3): 62.7 µM (inactive) | GI50 (U-251): 38.9 µM (inactive) | GI50 (HOP-62): 56 µM (inactive) | GI50 (CAKI-1): 37.1 µM (inactive) | GI50 (DU-145): 46.6 µM (inactive) | GI50 (MOLT-4): 28.4 µM (inactive) | GI50 (SNB-19): 96.4 µM (inactive) | GI50 (K562): 91.2 µM (inactive) | GI50 (NCI-H226): 29.1 µM (inactive) | GI50 (M14): 68.2 µM (inactive) | GI50 (NCI-H522): 36.1 µM (inactive) | GI50 (MCF7): 11.6 µM (inactive) | GI50 (SW-620): 53.6 µM (inactive) | GI50 (HT-29): 48 µM (inactive) | GI50 (UACC-62): 22.6 µM (inactive) | GI50 (HCT-15): 34 µM | GI50 (SF-539): 29.2 µM (inactive) | GI50 (LOX IMVI): 46.5 µM (inactive) | GI50 (UACC-257): 37 µM (inactive) | GI50 (IGROV-1): 35.5 µM (inactive) | GI50 (MDA-MB-435): 40 µM (inactive) | GI50 (RXF 393): > 100 µM (inactive) | GI50 (SNB-75): 76.7 µM (inactive) | GI50 (Hs-578T): 79.4 µM (inactive) | GI50 (Malme-3M): 29.5 µM (inactive)

Cc1ccnc(NC(=S)Nc2cccc(Cl)c2)c1
GI50 (OVCAR-8): > 100 µM (inactive) | GI50 (NCI/ADR-RES): > 100 µM (inactive) | GI50 (OVCAR-3): > 100 µM (inactive) | GI50 (A498): > 100 µM (inactive) | GI50 (UO-31): > 100 µM (inactive) | GI50 (BT-549): > 100 µM (inactive) | GI50 (RPMI-8226): > 100 µM (inactive) | GI50 (T47D): > 100 µM (inactive) | GI50 (NCI-H460): > 100 µM (inactive) | GI50 (COLO 205): > 100 µM (inactive) | GI50 (SN12C): > 100 µM (inactive) | GI50 (OVCAR-4): > 100 µM (inactive) | GI50 (SK-OV-3): > 100 µM (inactive) | GI50 (SF-295): > 100 µM (inactive) | GI50 (CCRF-CEM): > 100 µM (inactive) | GI50 (SK-MEL-28): > 100 µM (inactive) | GI50 (SF-268): > 100 µM (inactive) | GI50 (KM12): > 100 µM (inactive) | GI50 (EKVX): 12.4 µM (inactive) | GI50 (HCT-116): > 100 µM (inactive) | GI50 (TK-10): > 100 µM (inactive) | GI50 (SK-MEL-2): > 100 µM (inactive) | GI50 (786-0): > 100 µM (inactive) | GI50 (OVCAR-5): > 100 µM (inactive) | GI50 (SK-MEL-5): > 100 µM (inactive) | GI50 (A549): > 100 µM (inactive) | GI50 (PC-3): > 100 µM (inactive) | GI50 (U-251): > 100 µM (inactive) | GI50 (HOP-62): 78.9 µM (inactive) | GI50 (CAKI-1): > 100 µM (inactive) | GI50 (DU-145): > 100 µM (inactive) | GI50 (MOLT-4): > 100 µM (inactive) | GI50 (SNB-19): > 100 µM (inactive) | GI50 (K562): > 100 µM (inactive) | GI50 (HL-60): > 100 µM (inactive) | GI50 (M14): > 100 µM (inactive) | GI50 (NCI-H522): 0.02 µM (active) | GI50 (MCF7): > 100 µM (inactive) | GI50 (SW-620): > 100 µM (inactive) | GI50 (HT-29): > 100 µM (inactive) | GI50 (UACC-62): > 100 µM (inactive) | GI50 (HCT-15): > 100 µM | GI50 (SF-539): > 100 µM (inactive) | GI50 (LOX IMVI): > 100 µM (inactive) | GI50 (UACC-257): > 100 µM (inactive) | GI50 (IGROV-1): 10.5 µM (inactive) | GI50 (MDA-MB-435): > 100 µM (inactive) | GI50 (RXF 393): > 100 µM (inactive) | GI50 (SNB-75): 23.1 µM (inactive) | GI50 (SR): > 100 µM (inactive) | GI50 (Hs-578T): 74.1 µM (inactive)
